Measured values taken from PMC6593727 (Clinical Pharmacology in Drug Development, 2019).
Where two headings read alike, the source gives them in different places.

Tests used:
[1] = ref clinical studies, cited from earlier work
[2] = target: T1, CYP2D6 (Homo sapiens, UniProt P10635)
[3] = target: T2, CYP2C19 (Homo sapiens, UniProt P33261); test: In vitro CYP inhibition studies in human liver microsomes using probe substrates; format: biochemical; conditions: for R value (FDA): R = 1 + (total Cmax/Ki); for R value (EMA): R = unbound Cmax/Ki
[4] = target: T3, CYP2C9 (Homo sapiens, UniProt P11712); test: Inje cocktail DDI study: losartan and EXP‐3174 PK, assessment of CYP2C9 activity
[5] = target: T4, CYP2C8 (Homo sapiens, UniProt P10632); test: In vitro CYP inhibition studies in human liver microsomes using probe substrates; format: biochemical; conditions: for R value (FDA): R = 1 + (total Cmax/Ki); for R value (EMA): R = unbound Cmax/Ki
T4 sequence (P10632 1-490): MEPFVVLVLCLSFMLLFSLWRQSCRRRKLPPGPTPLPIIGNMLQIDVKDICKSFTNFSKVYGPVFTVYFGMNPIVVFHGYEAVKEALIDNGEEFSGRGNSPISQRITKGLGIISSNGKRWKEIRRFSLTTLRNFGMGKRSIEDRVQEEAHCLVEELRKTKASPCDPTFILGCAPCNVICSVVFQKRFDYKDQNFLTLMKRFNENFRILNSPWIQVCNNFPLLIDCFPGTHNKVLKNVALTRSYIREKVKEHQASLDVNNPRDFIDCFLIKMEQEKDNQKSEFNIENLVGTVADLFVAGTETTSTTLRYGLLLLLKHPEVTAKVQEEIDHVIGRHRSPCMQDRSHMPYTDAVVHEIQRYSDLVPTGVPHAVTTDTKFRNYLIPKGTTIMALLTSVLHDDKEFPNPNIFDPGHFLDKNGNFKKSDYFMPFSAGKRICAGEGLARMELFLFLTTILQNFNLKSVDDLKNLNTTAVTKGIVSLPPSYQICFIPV

[6] = target: T1, CYP2D6; test: as above; format: biochemical; conditions: for R value (FDA): R = 1 + (total Cmax/Ki); for R value (EMA): R = unbound Cmax/Ki
[7] = target: T5, CYP3A4 (Homo sapiens, UniProt P08684)
[8] = target: T2, CYP2C19
[9] = tested on: healthy female subjects; test: Safety and tolerability: adverse events; format: in vivo, human
[10] = target: T3, CYP2C9; test: In vitro CYP inhibition studies in human liver microsomes using probe substrates; format: biochemical; conditions: for R value (FDA): R = 1 + (total Cmax/Ki); for R value (EMA): R = unbound Cmax/Ki
[11] = tested on: CYP enzymes; test: Induction of CYP enzymes in vitro; format: in vitro ADME
[12] = Fraction of unbound ASP8477 in humans; format: in vitro ADME, human; conditions: independent of the clinical concentration range
[13] = ASP8477 steady‐state plasma PK in the cocktail study; format: in vivo, human; conditions: for Ctrough: mean ± SD
[14] = target: T5, CYP3A4; test: In vitro CYP inhibition studies in human liver microsomes using probe substrates; format: biochemical; conditions: for R value (FDA): R = 1 + (total Cmax/Ki); for R value (EMA): R = unbound Cmax/Ki
[15] = female, human, plasma, oral, 20 mg
[16] = female, human, plasma, oral, 60 mg
[17] = female, human, plasma, oral, 100 mg

T3 sequence (P11712 whole entry): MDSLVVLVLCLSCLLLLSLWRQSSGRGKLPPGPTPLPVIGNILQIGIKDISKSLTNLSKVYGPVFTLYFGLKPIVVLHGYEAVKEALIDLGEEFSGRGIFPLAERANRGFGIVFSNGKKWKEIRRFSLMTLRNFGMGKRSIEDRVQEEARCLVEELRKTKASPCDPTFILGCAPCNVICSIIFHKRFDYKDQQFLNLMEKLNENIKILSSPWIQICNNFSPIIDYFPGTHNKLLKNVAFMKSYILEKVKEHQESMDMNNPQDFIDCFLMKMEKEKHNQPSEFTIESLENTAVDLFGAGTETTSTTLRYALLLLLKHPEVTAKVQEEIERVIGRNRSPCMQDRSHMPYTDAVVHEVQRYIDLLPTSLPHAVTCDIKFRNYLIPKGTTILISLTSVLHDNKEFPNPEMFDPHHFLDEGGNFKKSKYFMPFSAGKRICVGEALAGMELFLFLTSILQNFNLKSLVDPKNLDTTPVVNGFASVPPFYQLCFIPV
T1 sequence (P10635 whole entry): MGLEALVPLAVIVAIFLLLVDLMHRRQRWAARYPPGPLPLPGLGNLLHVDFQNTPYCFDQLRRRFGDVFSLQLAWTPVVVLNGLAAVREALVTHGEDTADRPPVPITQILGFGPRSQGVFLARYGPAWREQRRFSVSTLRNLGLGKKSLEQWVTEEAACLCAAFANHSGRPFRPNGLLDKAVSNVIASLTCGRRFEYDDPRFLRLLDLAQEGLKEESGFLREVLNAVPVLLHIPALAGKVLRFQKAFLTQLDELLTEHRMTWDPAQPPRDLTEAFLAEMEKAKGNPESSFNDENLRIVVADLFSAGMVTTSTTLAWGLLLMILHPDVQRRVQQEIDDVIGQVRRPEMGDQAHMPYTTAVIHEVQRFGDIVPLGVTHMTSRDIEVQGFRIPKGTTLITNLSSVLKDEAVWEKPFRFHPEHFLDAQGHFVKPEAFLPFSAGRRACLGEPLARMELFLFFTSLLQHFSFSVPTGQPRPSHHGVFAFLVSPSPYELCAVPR
T2 sequence (P33261 whole entry): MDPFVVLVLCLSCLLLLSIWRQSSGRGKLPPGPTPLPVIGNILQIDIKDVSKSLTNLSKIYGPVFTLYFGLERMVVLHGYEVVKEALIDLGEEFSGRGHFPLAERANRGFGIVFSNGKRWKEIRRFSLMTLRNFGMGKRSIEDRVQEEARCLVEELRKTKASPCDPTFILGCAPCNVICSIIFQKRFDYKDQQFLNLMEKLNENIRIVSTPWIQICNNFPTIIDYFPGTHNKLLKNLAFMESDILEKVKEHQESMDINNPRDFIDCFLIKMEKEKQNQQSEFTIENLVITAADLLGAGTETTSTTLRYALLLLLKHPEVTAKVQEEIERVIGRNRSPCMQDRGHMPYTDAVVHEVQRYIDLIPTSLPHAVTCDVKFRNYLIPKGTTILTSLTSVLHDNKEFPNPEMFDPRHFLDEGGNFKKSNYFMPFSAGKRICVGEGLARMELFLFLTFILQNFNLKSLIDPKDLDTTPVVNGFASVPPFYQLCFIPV
T5 sequence (P08684 whole entry): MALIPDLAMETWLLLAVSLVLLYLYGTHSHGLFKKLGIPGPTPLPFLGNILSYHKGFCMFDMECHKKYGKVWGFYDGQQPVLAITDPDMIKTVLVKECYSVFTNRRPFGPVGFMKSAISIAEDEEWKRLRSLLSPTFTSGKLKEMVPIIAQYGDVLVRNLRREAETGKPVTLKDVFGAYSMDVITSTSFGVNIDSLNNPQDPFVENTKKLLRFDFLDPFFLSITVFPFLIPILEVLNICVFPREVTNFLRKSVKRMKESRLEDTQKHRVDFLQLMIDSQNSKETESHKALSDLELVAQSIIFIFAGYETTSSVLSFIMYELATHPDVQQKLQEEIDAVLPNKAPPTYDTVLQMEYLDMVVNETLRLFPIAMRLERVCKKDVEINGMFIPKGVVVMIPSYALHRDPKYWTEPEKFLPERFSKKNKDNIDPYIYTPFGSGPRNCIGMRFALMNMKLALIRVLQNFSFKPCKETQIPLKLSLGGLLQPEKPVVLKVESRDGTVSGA

SMILES: O=C(Nc1ccccc1)C1CCN(C(=O)Oc2cccnc2)CC1 [ASP8477, 3‐pyridyl 4‐(phenylcarbamoyl)piperidine‐1‐carboxylate]
- steady state achieved (mean trough concentration‐time profiles) ([1]; 20 mg once daily): 1 days
- steady state achieved (mean trough concentration‐time profiles) ([1]; 60 mg once daily): 3 days
- steady state achieved (mean trough concentration‐time profiles) ([1]; 100 mg once daily): 10 days
- dose excreted in urine as unchanged drug [1]: Approximately 1%
- in vivo CYP inhibition class (FDA guidance, AUC of probe substrate) ([2]; 20 mg dose level): weak (1.25‐ to <2‐fold)
- in vivo CYP inhibition class (FDA guidance, AUC of probe substrate) ([2]; 60 mg dose level): moderate (2‐ to <5‐fold)
- in vivo CYP inhibition class (FDA guidance, AUC of probe substrate) ([2]; 100 mg dose level): strong (≥5‐fold)
- overall in vivo inhibitor class ([2]; doses from 20 to 100 mg): weak to strong
- Ki [3]: 1 µM
- R value (FDA) ([3]; ASP8477 20 mg QD): 2.116
- R value (EMA) ([3]; ASP8477 20 mg QD): 0.167
- R value (FDA) ([3]; ASP8477 60 mg QD): 6.781
- R value (EMA) ([3]; ASP8477 60 mg QD): 0.87
- in vivo CYP inhibition class (FDA guidance, AUC of probe substrate) ([4]; 20 mg dose level): no effect
- in vivo CYP inhibition class (FDA guidance, AUC of probe substrate) ([4]; 60 mg dose level): weak (1.25‐ to <2‐fold)
- in vivo CYP inhibition class (FDA guidance, AUC of probe substrate) ([4]; 100 mg dose level): weak (1.25‐ to <2‐fold)
- overall in vivo inhibitor class ([4]; doses from 20 to 100 mg): weak (1.25‐ to <2‐fold)
- Ki [5]: 15 µM
- R value (FDA) ([5]; ASP8477 20 mg QD): 1.074
- R value (EMA) ([5]; ASP8477 20 mg QD): 0.011
- R value (FDA) ([5]; ASP8477 60 mg QD): 1.385
- R value (EMA) ([5]; ASP8477 60 mg QD): 0.06
- Ki [6]: 9.8 µM
- R value (FDA) ([6]; ASP8477 20 mg QD): 1.114
- R value (EMA) ([6]; ASP8477 20 mg QD): 0.017
- R value (FDA) ([6]; ASP8477 60 mg QD): 1.590
- R value (EMA) ([6]; ASP8477 60 mg QD): 0.09
- in vivo CYP inhibition class (FDA guidance, AUC of probe substrate) ([7]; 60 mg dose level): weak (1.25‐ to <2‐fold)
- in vivo CYP inhibition class (FDA guidance, AUC of probe substrate) ([7]; 100 mg dose level): weak (1.25‐ to <2‐fold)
- overall in vivo inhibitor class ([7]; doses from 20 to 100 mg): weak (1.25‐ to <2‐fold)
- in vivo CYP inhibition class (FDA guidance, AUC of probe substrate) ([8]; 20 mg dose level): moderate (2‐ to <5‐fold)
- in vivo CYP inhibition class (FDA guidance, AUC of probe substrate) ([8]; 60 mg dose level): moderate (2‐ to <5‐fold)
- in vivo CYP inhibition class (FDA guidance, AUC of probe substrate) ([8]; 100 mg dose level): strong (≥5‐fold)
- overall in vivo inhibitor class ([8]; doses from 20 to 100 mg): moderate to strong
- tolerability ([9]; ASP8477 in conjunction with cocktail probes, healthy female subjects): generally well tolerated
- fatigue of moderate intensity (most frequent moderate AE) ([9]; all dose levels): 5 subjects
- discontinuation due to an AE (emotional lability, moderate) ([9]; day 15, at the 60 mg level): 1 subject
- AEs considered possibly or probably related to study drug ([9]; following 20 mg ASP8477): 11 subjects
- AEs considered possibly or probably related to study drug ([9]; following 60 mg ASP8477): 11 subjects
- AEs considered possibly or probably related to study drug ([9]; following 100 mg ASP8477): 13 subjects
- serious AEs or deaths ([9]; whole study): No serious AEs or deaths
- Ki [10]: 8 µM
- R value (FDA) ([10]; ASP8477 20 mg QD): 1.140
- R value (EMA) ([10]; ASP8477 20 mg QD): 0.021
- R value (FDA) ([10]; ASP8477 60 mg QD): 1.723
- R value (EMA) ([10]; ASP8477 60 mg QD): 0.11
- effect on the induction of CYP enzymes [11]: No clinically relevant effect
- fraction of unbound ASP8477 [12]: 15%
- dose proportionality of Cmax and AUCtau ([13]; 20, 60, 100 mg once daily): more than dose‐proportional
- Ctrough ([13]; Day 14, 60 mg ASP8477 qd): 91 ± 110 ng/mL
- Ctrough ([13]; Day 23, 100 mg ASP8477 qd): 740 ± 640 ng/mL
- AUC [13, 15]: 1600 ± 710 ng·h/mL
- Cmax [13, 15]: 400 ± 120 ng/mL
- Tmax [13, 15]: 1 h
- Cmax [13, 16]: 2000 ± 490 ng/mL
- Tmax [13, 16]: 2 h
- Cmax [13, 17]: 4200 ± 1200 ng/mL
- Tmax [13, 17]: 2 h
- Ki [14]: 18 µM
- R value (FDA) ([14]; ASP8477 20 mg QD): 1.062
- R value (EMA) ([14]; ASP8477 20 mg QD): 0.009
- R value (FDA) ([14]; ASP8477 60 mg QD): 1.321
- R value (EMA) ([14]; ASP8477 60 mg QD): 0.05
